Results: publication PMC10733463, “Berberine-microbiota interplay: orchestrating gut health through modulation of the gut microbiota and metabolic transformation into bioactive metabolites” (Frontiers in Pharmacology, 2023)

Tests used:
caecal microbiota = experiment: SCFA quantification in caecal microbiota cultures supplemented with berberine or berberrubine; assay type: cell-based, broiler chicken; details: 24 h
Description: As berberine and its demethylated metabolites correlated with SCFAs in vivo, their ability to directly influence SCFA metabolism was assessed in vitro. […] Cultures were centrifuged at 3,724 g for 5 min 1 mL 1:2 diluted supernatant in Milli-Q water was used for SCFA analysis. Acetate, propionate and butyrate were quantified using the GC-FID method described by ([De […] et al., 2010]). This method involves the extraction of SCFA from samples with diethyl ether after the addition of 2-methyl hexanoic acid as an internal standard.

T84 cells = experiment: Cell viability assay (neutral red uptake), T84; assay type: cell-based, human; details: 0.1 µg berberine/mL medium
Description: Caco-2 cells (human intestinal epithelial cells) were cultured in MEM (Gibco, Paisley, United Kingdom) supplemented with 10% Fetal Bovine Serum (FBS), 1% L-glutamine (Gibco), 1% MEM NEAA (Gibco) and 1% penicillin/streptomycin (P/S) (Gibco). T84 cells (human intestinal epithelial cells) were cultured in 1:1 DMEM/F12 (Gibco) supplemented with 10% FBS, 1% L-glutamine and 1% P/S (37°C, 5% CO2). The neutral red uptake assay was employed to evaluate the potential cytotoxicity of berberine ([Repetto et al., 2008]). Briefly, Caco-2 and T84 were seeded at 2 × 10^5 cells/well and 5 × 10^4 cells/well respectively in 96-well plates (Greiner Bio-one, Frickenhausen, Germany) and cultivated for 24 h in antibiotic-free medium (treatment medium) for attachment. […] A 10-fold dilution of sodium dodecyl sulfate (Sigma-Aldrich), ranging from 10 mg/mL to 10^−6 mg/mL was used a positive control. Cells were washed with 200 µL pre-warmed HBSS(+) (Gibco) and then treated with 150 µL of Neutral Red medium, consisting of 1:80 Neutral Red solution 0.33% (Sigma-Aldrich)/treatment medium for 3 h. Cells were washed in 200 µL HBSS(+) and treated with 100 µL of Neutral Red Desorb solution, consisting of 1% glacial acetic acid (Merck, Darmstadt, Germany), 50% ethanol (95%, Chem-Lab, Zedelgem, Belgium) and 49% deionized water.

[1] = UPLC-MS/MS quantification of berberine and metabolites in plasma; assay type: in vivo, Ross 308 broiler chickens; details: lowest berberine supplementation level (0.1 g/kg feed)
From the text: The study was undertaken following the guidelines of the ethics committee of the Faculty of Veterinary Medicine and Bioscience Engineering, Ghent University, in accordance with the EU Directive 2010/63/EU. One-day-old Ross 308 male broilers were obtained from a local hatchery and housed in pens on wood shavings. They were allotted into 4 groups, with three replicate pens per group each housing 8 chickens. The animals were not vaccinated. Water and commercial starter feed (day 1–12, FARM 1 Mash, Country’s Best, Versele Laga, Deinze, Belgium) or grower (day 13–21, FARM 2 mash, Country’s Best, Versele Laga, Deinze, Belgium) were provided ad libitum. The control group received the standard non-supplemented diets, whereas the chickens in other groups were fed the same feed supplemented with 0.1, 0.5 or 1 g berberine/kg feed throughout the whole trial period. At day 21, 4 birds per pen were weighted then euthanized by sodium pentobarbital injection for sampling. Individual jejunal, ileal, caecal and colonic contents were stored at −20°C for microbiota composition analysis (16S rRNA gene sequencing). Additionally, ileal and caecal content samples were collected and stored at −20°C for berberine and berberine-derived metabolite quantification. Duodenal tissue samples were collected and fixed in 4% phosphate buffered formaldehyde for histological analysis. Blood samples were collected in heparin tubes and centrifuged at 524 g for 10 min to recover the plasma fraction, which was further mixed with 17 mg/mL L-ascorbic acid for dihydroberberine stabilization, and stored at −20°C for berberine and berberine-derived metabolite quantification.
The column temperature was maintained at 25°C. The autosampler temperature was set at 10°C.
A 137.5 µL plasma sample containing 17 mg/mL L-ascorbic acid was used for sample extraction. The ascorbic acid solution was added to prevent oxidation of dihydroberberine to berberine during sample storage ([Feng et al., 2015]). The plasma sample was transferred to an OstroTM 96 well-plate (25 mg) (Waters). Subsequently, 50 µL Milli-Q water and 25 µL of an internal standard solution containing 100 ng/mL of both berberine-d6 and tetrahydropalmatine were added. A 640 µL volume of 1% (v/v) formic acid solution in acetonitrile (1/3 ratio) was added, followed by gentle mixing. Vacuum was applied on the Ostro™ plate for 5 min and the eluate was collected in a 2 mL square 96-well collector plate. The sample was transferred in a glass tube and evaporated at 40°C under a gentle stream of nitrogen in a Pierce (Rockford, United States) Reacti-Therm III™ Heating Module and Reacti-Vap™ III Module. The dried sample extract was reconstituted in 500 µL Milli-Q water, followed by injection of a 5 µL sample aliquot onto the UPLC-MS/MS apparatus. Quantification was based on the ratio of the analyte peak area compared to the peak area of the internal standard berberine-d6.
Calibration standards and quality control samples were prepared as follows: 137.5 µL of blank plasma stabilized with 17 mg/mL L-ascorbic acid were supplemented with 25 µL mixed working solutions of berberine and metabolites (except dihydroberberine) at different levels, 25 µL of dihydroberberine working solution, stabilized with 17 mg/mL L-ascorbic acid, at different levels and 25 µL of an internal standard solution containing 100 ng/mL of both berberine-d6 and tetrahydropalmatine. The calibration curve was in the 0.1–100 ng/mL range, including 0.1, 0.5, 1, 2.5, 5, 10, 25, […], 50 and 100 ng/mL levels.
The UPLC-MS/MS analysis method for the quantification of berberine and berberine-derived metabolites both in plasma and ileal/caecal intestinal content was validated to the guidelines of the European Medicines Agency, i.e., of the Committee for Veterinary Medicinal Products (EMEA/CVMP/VICH/463202/2009) and of the Committee for Medicinal Products for Human Use (EMEA/CHMP/EWP/192217/20), and in accordance with the EU Directive 2002/657/EC. […]

| Compound | SCFA production in caecal microbiota cultures (caecal microbiota; 25, 2.5 µM) | Cytotoxicity (Neutral Red Uptake) (T84 cells) | Quantification in plasma [1] | Concentrations of acetate, butyrate and propionate in caecal microbiota cultures (caecal microbiota; higher concentration (2.5 µM)) |
| --- | --- | --- | --- | --- |
| COc1ccc2cc3[n+](cc2c1OC)CCc1cc2c(cc1-3)OCO2 [Berberine, Berberine chloride] | did not significantly affect | considered safe | – | – |
| COc1ccc2cc3[n+](cc2c1O)CCc1cc2c(cc1-3)OCO2 [Berberrubine, berberrubine chloride] | – | – | could also not be quantified | increased |
| COc1cc2c(cc1O)CC[n+]1cc3c(OC)c(OC)ccc3cc1-2 [Jatrorrhizine, Jatrorrhizine chloride] | – | – | could also not be quantified | – |
